Source: the supplement of paper PMC10307832

Columns and labels:
Experiment in all cases: relative viability (nuclei count vs DMSO), 5 days (fraction); higher = more cells survive
4EGI-1 + Palbociclib = compound: O=C(O)C(Cc1ccccc1[N+](=O)[O-])=NNc1nc(-c2ccc(Cl)c(Cl)c2)cs1 (mixture of isomers) [4EGI-1] + CC(=O)c1c(C)c2cnc(Nc3ccc(N4CCNCC4)cn3)nc2n(C2CCCC2)c1=O [Palbociclib] (partner 0.5 µM)
How it was run: (§1)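 Relative viability equals treated-well nuclei counts divided by vehicle-well nuclei counts. Counts came from 4× images of lung cancer cell lines grown in 1536-well plates for 5 days after pin-tool dosing on the day after seeding. Dosing used one drug alone or a fixed anchor-drug dose plus five library-drug doses (not always all listed) in √10 steps, and values are medians of duplicate plates.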

4EGI-1 + Decitabine = compound: O=C(O)C(Cc1ccccc1[N+](=O)[O-])=NNc1nc(-c2ccc(Cl)c(Cl)c2)cs1 (mixture of isomers) [4EGI-1] + Nc1ncn([C@H]2C[C@H](O)[C@@H](CO)O2)c(=O)n1 [Decitabine] (partner 2 µM)
How it was run: as §1

XMD8-85 + Crizotinib = compound: CN1CCN(CC1)C2=CC(=C(C=C2)NC3=NC=C4C(=N3)N(C5=CC=CC=C5C(=O)N4C)C)OC [XMD8-85] + C[C@@H](Oc1cc(-c2cnn(C3CCNCC3)c2)cnc1N)c1c(Cl)ccc(F)c1Cl [Crizotinib] (partner 1 µM)
How it was run: as §1

XMD8-85 + Linsitinib = compound: CN1CCN(CC1)C2=CC(=C(C=C2)NC3=NC=C4C(=N3)N(C5=CC=CC=C5C(=O)N4C)C)OC [XMD8-85] + C[C@]1(O)C[C@@H](c2nc(-c3ccc4ccc(-c5ccccc5)nc4c3)c3c(N)nccn32)C1 [Linsitinib] (partner 1 µM)
How it was run: as §1

Cell Line | relative viability (4EGI-1 + Palbociclib; first compound 0.5 µM) | relative viability (4EGI-1 + Palbociclib; first compound 1.581 µM) | relative viability (4EGI-1 + Palbociclib; first compound 5 µM) | relative viability (4EGI-1 + Palbociclib; first compound 15.81 µM) | relative viability (4EGI-1 + Palbociclib; first compound 50 µM) | relative viability (4EGI-1 + Decitabine; first compound 0.5 µM) | relative viability (4EGI-1 + Decitabine; first compound 1.581 µM) | relative viability (4EGI-1 + Decitabine; first compound 5 µM) | relative viability (4EGI-1 + Decitabine; first compound 15.81 µM) | relative viability (4EGI-1 + Decitabine; first compound 50 µM) | relative viability (XMD8-85 + Crizotinib; first compound 0.08 µM) | relative viability (XMD8-85 + Crizotinib; first compound 0.253 µM) | relative viability (XMD8-85 + Crizotinib; first compound 2.53 µM) | relative viability (XMD8-85 + Crizotinib; first compound 8 µM) | relative viability (XMD8-85 + Linsitinib; first compound 0.08 µM) | relative viability (XMD8-85 + Linsitinib; first compound 0.253 µM) | relative viability (XMD8-85 + Linsitinib; first compound 0.8 µM) | relative viability (XMD8-85 + Linsitinib; first compound 2.53 µM) | relative viability (XMD8-85 + Linsitinib; first compound 8 µM) | relative viability (XMD8-85 + Crizotinib; first compound 0.8 µM)
BEN | 0.452 | 0.455 | 0.498 | 0.46 | 0.458 | 0.758 | 0.635 | 0.78 | 0.578 | 0.522 | 0.744 | 0.865 | 0.608 | 0.447 | 0.692 | 0.923 | 0.802 | 0.683 | 0.584 | 
EKVX | 0.456 |  | 0.365 | 0.23 | 0.307 | 0.386 |  | 0.371 | 0.276 | 0.319 | 0.892 | 0.985 | 1 | 0.886 | 0.808 | 1.06 | 1.03 | 1.18 | 0.851 | 1.12
NCI-H1755 | 0.439 | 0.424 | 0.425 | 0.435 | 0.406 | 0.718 | 0.676 | 0.654 | 0.697 | 0.618 | 0.901 | 0.978 | 0.939 | 0.748 | 1.06 | 1.01 | 1 | 1.09 | 0.907 | 0.892
NCI-H2126 | 0.324 | 0.371 | 0.326 | 0.343 | 0.339 | 0.611 | 0.65 | 0.617 | 0.472 | 0.488 | 1.02 | 0.974 | 1.06 | 1 | 0.69 |  | 0.766 | 0.726 | 0.681 | 1.02
NCI-H1651 | 0.559 | 0.478 | 0.493 | 0.534 | 0.509 | 0.626 | 0.553 | 0.734 | 0.576 | 0.286 | 0.924 | 0.855 | 0.836 | 0.772 | 0.957 | 0.909 | 0.945 | 1.08 | 0.659 | 0.822
NCI-H460 | 0.169 | 0.05 | 0.245 | 0.141 | 0.0263 | 0.562 | 0.246 | 0.476 | 0.188 | 0.0663 | 0.996 | 0.83 | 0.619 | 0.0598 | 0.594 | 0.904 | 0.868 | 0.821 | 0.262 | 1.19
NCI-H2347 | 0.427 | 0.405 | 0.447 | 0.413 | 0.34 | 0.68 | 0.649 | 0.569 | 0.586 | 0.543 | 0.696 | 0.785 | 0.609 | 0.614 | 0.91 | 0.923 | 0.808 | 1.04 | 0.796 | 0.749
EMC-BAC-2 | 0.561 |  | 0.504 | 0.29 | 0.157 | 1.21 |  | 0.972 | 0.904 | 0.436 | 0.748 |  | 0.662 | 0.72 | 0.851 | 0.803 | 0.793 | 0.797 | 0.813 | 0.794
NCI-H1437 | 0.368 | 0.308 | 0.335 | 0.279 | 0.168 | 0.58 | 0.593 | 0.544 | 0.435 | 0.221 | 0.76 | 0.923 | 0.856 | 0.491 | 0.902 | 0.944 | 1.09 | 0.92 | 0.413 | 1.14
NCI-H650 | 0.319 |  | 0.295 | 0.319 | 0.33 | 0.352 |  | 0.34 | 0.332 | 0.322 | 0.6 | 0.603 | 0.57 | 0.345 | 0.925 | 0.74 | 0.811 | 0.826 | 0.371 | 0.712
NCI-H2009 | 0.251 | 0.243 | 0.224 | 0.196 | 0.149 | 0.419 | 0.359 | 0.389 | 0.292 | 0.317 | 1.03 | 0.981 | 1.06 | 0.395 | 1.17 | 1.12 | 1.21 | 1.23 | 0.636 | 1.1
NCI-H1944 | 0.404 |  | 0.33 | 0.273 | 0.252 | 0.502 |  | 0.427 | 0.404 | 0.344 | 1.02 | 0.999 | 1.35 | 0.979 | 1.1 | 1.26 | 1.25 | 1.44 | 1.04 | 1.3
NCI-H1734 | 0.395 | 0.281 | 0.373 | 0.38 | 0.246 | 0.569 | 0.535 | 0.519 | 0.463 | 0.29 | 0.614 | 0.646 | 0.577 | 0.368 | 1.01 | 0.766 | 0.863 | 0.816 | 0.607 | 0.724
SK-LU-1 | 0.439 | 0.44 | 0.414 | 0.386 | 0.289 | 0.682 | 0.65 | 0.653 | 0.48 | 0.367 | 0.568 | 0.892 | 1.12 | 0.653 | 0.947 | 1.11 | 1.12 | 1.07 | 0.91 | 1.07
NCI-H1915 | 0.562 | 0.369 | 0.517 | 0.477 | 0.404 | 0.27 | 0.226 | 0.259 | 0.247 | 0.215 | 1.06 | 0.909 | 0.998 | 0.882 | 1.15 | 1.15 | 1.08 | 1.16 | 0.999 | 0.943
SW 1573 | 0.417 | 0.354 | 0.47 | 0.257 | 0.119 | 0.623 | 0.427 | 0.495 | 0.254 | 0.112 | 0.817 | 0.705 | 0.867 | 0.456 | 0.873 | 0.802 |  | 0.698 | 0.655 | 0.822
